Source: US20230131899A1, “INHIBITORS OF MICROBIALLY INDUCED AMYLOID” (Axial Therapeutics, Inc., priority 2020, published 2023)
Read-outs that look alike come from different tables or passages of the source.

Test system: CsgA gene expression (csgBAC promoter-GFP reporter) in E. coli UTI89
Assay: In vitro live cell fluorescent reporter assay of CsgA transcription (Reporter Assay)
Type: cell-based
Settings: Escherichia coli
Method in brief: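 Compounds at 0.14–100 μM (1% DMSO final) incubated 20 h at 27 °C in YESCA broth with UTI89 carrying a single-copy GFP reporter under the csgBAC intergenic promoter region, inoculum OD600 0.003. Fluorescence normalized to vehicle wells gave IC50 and 50%-of-vehicle concentration; OD600 reduction >10% flagged growth impact.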

[1] = read-out: Reporter Assay Abs IC50 (activity range), median Abs IC50 in the CsgA reporter assay, class symbol
[2] = read-out: Reporter Assay Abs IC50 (μM), median Abs IC50 in the CsgA reporter assay, N/A = maximum expression reduction is <50% of control

Structure (SMILES) | IC50 [1] [µM] | IC50 [2] [µM]
O=C(O)C1CN(CCCCO)S(=O)(=O)c2c(-c3cccc(C(F)(F)F)c3)c(Cc3cccc4ccccc34)c(NC3CCCC3)c(=O)n21 (stereo not shown) [Compound 121, 7-(cyclopentylamino)-2-(4-hydroxybutyl)-8-(naphthalen-1-ylmethyl)-6-oxo-9-(3-(trifluoromethyl)phenyl)-3,4-dihydro-2H,6H-pyrido[1,2-e][1,2,5]thiadiazine-4-carboxylic acid 1,1-dioxide] | 1.3 to 4.5 | 2
CN(C)CCN1CC(C(=O)O)n2c(c(-c3cccc(C(F)(F)F)c3)c(Cc3cccc4ccccc34)cc2=O)S1(=O)=O (stereo not shown) [Compound 017, 2-(2-(dimethylamino)ethyl)-8-(naphthalen-1-ylmethyl)-6-oxo-9-(3-(trifluoromethyl)phenyl)-3,4-dihydro-2H,6H-pyrido[1,2-e][1,2,5]thiadiazine-4-carboxylic acid 1,1-dioxide] | 1.3 to 4.5 | 2.7
CCCN1CC(C(=O)O)n2c(c(-c3cccc(C(F)(F)F)c3)c(Cc3cccc4ccccc34)cc2=O)S1(=O)=O (racemic) [Compound 016, 8-(naphthalen-1-ylmethyl)-6-oxo-2-propyl-9-(3-(trifluoromethyl)phenyl)-3,4-dihydro-2H,6H-pyrido[1,2-e][1,2,5]thiadiazine-4-carboxylic acid 1,1-dioxide] | 4.6 to 10 | 5
CN1CC(C(=O)O)n2c(c(-c3cccc(C(F)(F)F)c3)c(Cc3cccc4ccccc34)c(C(N)=O)c2=O)S1(=O)=O (stereo not shown) [Compound 109, 7-carbamoyl-2-methyl-8-(naphthalen-1-ylmethyl)-6-oxo-9-(3-(trifluoromethyl)phenyl)-3,4-dihydro-2H,6H-pyrido[1,2-e][1,2,5]thiadiazine-4-carboxylic acid 1,1-dioxide] | 1.3 to 4.5 | 1.9
CN1CC(C(N)=O)n2c(c(-c3cccc(C(F)(F)F)c3)c(Cc3cccc4ccccc34)cc2=O)S1(=O)=O (stereo not shown) [Compound 030, 2-methyl-8-(naphthalen-1-ylmethyl)-6-oxo-9-(3-(trifluoromethyl)phenyl)-3,4-dihydro-2H,6H-pyrido[1,2-e][1,2,5]thiadiazine-4-carboxamide 1,1-dioxide] | 4.6 to 10 | 5
CCN1CC(C(=O)O)n2c(c(-c3cccc(C(F)(F)F)c3)c(Cc3cccc4ccccc34)cc2=O)S1(=O)=O (single isomer, unassigned) [Compound 015a, 2-ethyl-8-(naphthalen-1-ylmethyl)-6-oxo-9-(3-(trifluoromethyl)phenyl)-3,4-dihydro-2H,6H-pyrido[1,2-e][1,2,5]thiadiazine-4-carboxylic acid 1,1-dioxide] | > 10 | 21.7
C=CCCN1CC(C(=O)O)n2c(c(-c3cccc(C(F)(F)F)c3)c(Cc3cccc4ccccc34)cc2=O)S1(=O)=O (stereo not shown) [Compound 024, 2-(but-3-en-1-yl)-8-(naphthalen-1-ylmethyl)-6-oxo-9-(3-(trifluoromethyl)phenyl)-3,4-dihydro-2H,6H-pyrido[1,2-e][1,2,5]thiadiazine-4-carboxylic acid 1,1-dioxide] | 4.6 to 10 | 9.9
O=C(O)C1CN(CCCO)S(=O)(=O)c2c(-c3cccc(C(F)(F)F)c3)c(Cc3cccc4ccccc34)c(NC3CCCC3)c(=O)n21 (stereo not shown) [Compound 120, 7-(cyclopentylamino)-2-(3-hydroxypropyl)-8-(naphthalen-1-ylmethyl)-6-oxo-9-(3-(trifluoromethyl)phenyl)-3,4-dihydro-2H,6H-pyrido[1,2-e][1,2,5]thiadiazine-4-carboxylic acid 1,1-dioxide] | 1.3 to 4.5 | 3.1
O=C(O)C1CSc2c(-c3cccc(C(F)(F)F)c3)c(Cc3cccc4ccccc34)cc(=O)n21 (racemic) [Compound 011, 7-(naphthalen-1-ylmethyl)-5-oxo-8-(3-(trifluoromethyl)phenyl)-2,3-dihydro-5H-thiazolo[3,2-a]pyridine-3-carboxylic acid] | 4.6 to 10 | 5.8
O=C(O)[C@H]1CS(=O)(=O)c2c(-c3cccc(C(F)(F)F)c3)c(Cc3cccc4ccccc34)cc(=O)n21 (single isomer, unassigned) [Compound 010b, 7-(naphthalen-1-ylmethyl)-5-oxo-8-(3-(trifluoromethyl)phenyl)-2,3-dihydro-5H-thiazolo[3,2-a]pyridine-3-carboxylic acid 1,1-dioxide] | > 10 | 58.5
CCc1c(Cc2cccc3ccccc23)c(-c2cccc(C(F)(F)F)c2)c2n(c1=O)C(C(=O)O)CN(C1CCCCC1)S2(=O)=O (stereo not shown) [Compound 116, 2-cyclohexyl-7-ethyl-8-(naphthalen-1-ylmethyl)-6-oxo-9-(3-(trifluoromethyl)phenyl)-3,4-dihydro-2H,6H-pyrido[1,2-e][1,2,5]thiadiazine-4-carboxylic acid 1,1-dioxide] | 1.3 to 4.5 | 1.5
Nc1c(Cc2cccc3ccccc23)c(-c2cccc(C(F)(F)F)c2)c2n(c1=O)C(C(=O)O)CS2(=O)=O (stereo not shown) [Compound 023, 6-amino-7-(naphthalen-1-ylmethyl)-5-oxo-8-(3-(trifluoromethyl)phenyl)-2,3-dihydro-5H-thiazolo[3,2-a]pyridine-3-carboxylic acid 1,1-dioxide] | > 10 | 19.6
O=C(O)CN1CC(C(=O)O)n2c(c(-c3cccc(C(F)(F)F)c3)c(Cc3cccc4ccccc34)cc2=O)S1(=O)=O (stereo not shown) [Compound 018, 2-(carboxymethyl)-8-(naphthalen-1-ylmethyl)-6-oxo-9-(3-(trifluoromethyl)phenyl)-3,4-dihydro-2H,6H-pyrido[1,2-e][1,2,5]thiadiazine-4-carboxylic acid 1,1-dioxide] | > 10 | 148
CC(C)N1CC(C(=O)O)n2c(c(-c3cccc(C(F)(F)F)c3)c(Cc3cccc4ccccc34)c(NC3CCCC3)c2=O)S1(=O)=O (stereo not shown) [Compound 123, 7-(cyclopentylamino)-2-isopropyl-8-(naphthalen-1-ylmethyl)-6-oxo-9-(3-(trifluoromethyl)phenyl)-3,4-dihydro-2H,6H-pyrido[1,2-e][1,2,5]thiadiazine-4-carboxylic acid 1,1-dioxide] | 1.3 to 4.5 | 3.3
CCCN1CC(C(=O)O)n2c(c(-c3cccc(C(F)(F)F)c3)c(Cc3cccc4ccccc34)c(NC3CCOCC3)c2=O)S1(=O)=O (stereo not shown) [Compound 127, 8-(naphthalen-1-ylmethyl)-6-oxo-2-propyl-7-((tetrahydro-2H-pyran-4-yl)amino)-9-(3-(trifluoromethyl)phenyl)-3,4-dihydro-2H,6H-pyrido[1,2-e][1,2,5] thiadiazine-4-carboxylic acid 1,1-dioxide] | 4.6 to 10 | 4.8
O=C(O)C1CSc2c(-c3cccc(C(F)(F)F)c3)c(Cc3cccc4ccccc34)nc(=O)n21 (stereo not shown) [Compound 022, 7-(naphthalen-1-ylmethyl)-5-oxo-8-(3-(trifluoromethyl)phenyl)-2,3-dihydro-5H-thiazolo[3,2-c]pyrimidine-3-carboxylic acid] | 1.3 to 4.5 | 4.1
CN(C)Cc1c(Cc2cccc3ccccc23)c(-c2cccc(C(F)(F)F)c2)c2n(c1=O)C(C(=O)O)CS2 (stereo not shown) [Compound 075, 6-((dimethylamino)methyl)-7-(naphthalen-1-ylmethyl)-5-oxo-8-(3-(trifluoromethyl)phenyl)-2,3-dihydro-5H-thiazolo[3,2-a]pyridine-3-carboxylic acid] | 4.6 to 10 | 5.6
CN1CC(C(=O)O)n2c(c(-c3cccc(C(F)(F)F)c3)c(Cc3cccc4ccccc34)c(N)c2=O)S1(=O)=O (stereo not shown) [Compound 074, 7-amino-2-methyl-8-(naphthalen-1-ylmethyl)-6-oxo-9-(3-(trifluoromethyl)phenyl)-3,4-dihydro-2H,6H-pyrido[1,2-e][1,2,5]thiadiazine-4-carboxylic acid 1,1-dioxide] | > 10 | 29.2
CCCCCN1CC(C(=O)O)n2c(c(-c3cccc(C(F)(F)F)c3)c(Cc3cccc4ccccc34)cc2=O)S1(=O)=O (racemic) [Compound 025, 8-(naphthalen-1-ylmethyl)-6-oxo-2-pentyl-9-(3-(trifluoromethyl)phenyl)-3,4-dihydro-2H,6H-pyrido[1,2-e][1,2,5]thiadiazine-4-carboxylic acid 1,1-dioxide] | 1.3 to 4.5 | 1.9
CCCN1CC(C(=O)O)n2c(c(-c3cccc(C(F)(F)F)c3)c(Cc3cccc4ccccc34)c(NC3CCCC3)c2=O)S1(=O)=O (stereo not shown) [Compound 126, 7-(cyclopentylamino)-8-(naphthalen-1-ylmethyl)-6-oxo-2-propyl-9-(3-(trifluoromethyl)phenyl)-3,4-dihydro-2H,6H-pyrido[1,2-e][1,2,5]thiadiazine-4-carboxylic acid 1,1-dioxide] | 1.3 to 4.5 | 1.9
O=C(O)[C@@H]1CS(=O)(=O)c2c(-c3cccc(C(F)(F)F)c3)c(Cc3cccc4ccccc34)cc(=O)n21 (single isomer, unassigned) [Compound 010a, 7-(naphthalen-1-ylmethyl)-5-oxo-8-(3-(trifluoromethyl)phenyl)-2,3-dihydro-5H-thiazolo[3,2-a]pyridine-3-carboxylic acid 1,1-dioxide] | > 10 | 43.9
Nc1c(Cc2cccc3ccccc23)c(-c2cccc(C(F)(F)F)c2)c2n(c1=O)C(C(=O)O)CS2 (racemic) [Compound 020, 6-amino-7-(naphthalen-1-ylmethyl)-5-oxo-8-(3-(trifluoromethyl)phenyl)-2,3-dihydro-5H-thiazolo[3,2-a]pyridine-3-carboxylic acid] | 1.3 to 4.5 | 3.9
NC(=O)CN1CC(C(=O)O)n2c(c(-c3cccc(C(F)(F)F)c3)c(Cc3cccc4ccccc34)cc2=O)S1(=O)=O (stereo not shown) [Compound 028, 2-(2-amino-2-oxoethyl)-8-(naphthalen-1-ylmethyl)-6-oxo-9-(3-(trifluoromethyl)phenyl)-3,4-dihydro-2H,6H-pyrido[1,2-e][1,2,5]thiadiazine-4-carboxylic acid 1,1-dioxide] | > 10 | 18.2
